{"source": "patent US20160106719A1", "about": "“Transplantation Adjuvant in Cell Therapy Using Neural Progenitor Cells” (SUMITOMO DAINIPPON PHARMA CO., LTD., priority 2013, published 2016)", "key": {"[1]": {"tested_on": "re-aggregated PSA-NCAM+ cells (neural progenitor cells derived from mouse iPS cell line 440A3)", "experiment": "In vitro differentiation of mouse iPS cell-derived neural progenitor cells into dopaminergic neurons (immunocytochemistry for marker molecules)", "format": "cell-based", "procedure": "DMEM contained 1% fetal bovine serum (FBS), 5% knockout serum replacement (KSR; manufactured by Invitrogen), 0.1 mM non-essential amino acids, 1 mM sodium pyruvate, 0.1 mM 2-mercaptoethanol (2-ME; manufactured by Invitrogen), 2000 U/ml leukemia inhibitory factor (manufactured by Invitrogen), and 1.5 μg/ml puromycin. In order to differentiate and induce the iPS cells into neural cells, serum-free floating culture of embryoid bodies-like aggregates (SFEB) was employed. Specifically, aggregates of the 440A3 cells were separated into individual cells by using 0.25% trypsin/1 mM EDTA (ethylenediaminetetraacetic acid), and the resultant cells were seeded in a 96-well low adhesion plate (product name: Lipidure-Coat Plate A-US96, manufactured by NOF Corporation) at a concentration (cell density) of 3000 cells/well. Thereafter, re-aggregation of the 440A3 cells was induced in a differentiation medium containing GMEM (Glasgow Minimum Essential Medium), 5% KSR, 0.1 mM non-essential amino acids, 1 mM sodium pyruvate and 0.1 mM 2-ME, and this day was defined as day 0 (FIG. 1). During this differentiation process, various factors were added to the differentiation medium for inducing midbrain dopaminergic phenotypes as illustrated in FIG. 1. Specifically, from day 3 to day 7 after starting the SFEB, 20 ng/ml of mouse FGF-8b (manufactured by R & D Systems) was added, from day 4 to day 7 after starting the SFEB, 10 ng/ml of recombinant mouse sonic hedgehog (C25I1) N-terminus (manufactured by R & D Systems) was added, and on and after day 7 after starting the SFEB, 1% N-2 supplement (manufactured by Gibco) and 200 nM ascorbic acid were added. The KSR was removed from the differentiation medium on day 7 after starting the SFEB.\nOn day 9 after starting the SFEB, the 440A3 cells were washed with phosphate buffered saline (PBS(-)) twice. Thereafter, the 440A3 cells were dissociated into single cells by five-minute incubation performed at 37° C. by using Accumax (manufactured by Innovate Cell Technologies, product name). The cells were collected with a FACS buffer. The FACS buffer was constituted by PBS(-) containing 2% FBS, 20 mM D-glucose and 1% penicillin/streptomycin (P/S, manufactured by Invitrogen). The collected cells were mechanically dissociated into a single cell suspension by a gentle pipetting operation.\nNext, the resultant cells were incubated with a mouse anti-PSA-NCAM antibody (dilution rate of 1:200, manufactured by Millipore) at 4° C. for about 30 minutes. Thereafter, a washing operation using a centrifuge was performed twice, and the resultant cells were further incubated for 30 minutes with a secondary antibody of a donkey anti-mouse IgG (dilution rate of 1:400, manufactured by Invitrogen) labeled with AlexaFluor 594. Dead cells and cell debris were excluded by using 7-aminoactinomycin-D (7-AAD, manufactured by BD Pharmigen) stain. The remaining living cells were suspended again at a final concentration (cell density) of 1×10^7 cells/ml. Cell sorting was conducted by using a FACSAria II cell sorter (manufactured by Becton Dickinson And Company) equipped with a 488 nm argon laser, a 633 nm helium-neon laser, a 100 μm nozzle and a FACSDiva software program. A PSA-NCAM positive rate was determined on the basis of a negative control not using a primary antibody.\nAfter the cell sorting, in order to induce the reaggregation of the cells, a PSA-NCAM^+ cell group was seeded in a DMEM/F12 medium (manufactured by Wako Pure Chemical Industries, Ltd.) in a 96-well plate at a concentration (cell density) of 20000 cells/well. The DMEM/F12 medium contained 1% N-2 supplement, 200 nM ascorbic acid, 2% B27 supplement (manufactured by Invitrogen), 0.5 mM L-glutamine and 1% P/S. In order to prevent apoptosis, a ROCK inhibitor, Y-27632 (manufactured by Wako Pure Chemical Industries, Ltd.), was used at a concentration of 30 μM during the cell sorting process and the following overnight cultivation. […]"}, "[2]": {"tested_on": "TH+ neurons derived from mouse iPS cells", "experiment": "In vitro survival of TH+ neurons with caspase 3 expression as index of apoptosis", "format": "cell-based", "conditions": "control 18.0±5.9%; no significant difference among four groups", "procedure": "After the cell sorting, in order to induce the reaggregation of the cells, a PSA-NCAM^+ cell group was seeded in a DMEM/F12 medium (manufactured by Wako Pure Chemical Industries, Ltd.) in a 96-well plate at a concentration (cell density) of 20000 cells/well. The DMEM/F12 medium contained 1% N-2 supplement, 200 nM ascorbic acid, 2% B27 supplement (manufactured by Invitrogen), 0.5 mM L-glutamine and 1% P/S. In order to prevent apoptosis, a ROCK inhibitor, Y-27632 (manufactured by Wako Pure Chemical Industries, Ltd.), was used at a concentration of 30 μM during the cell sorting process and the following overnight cultivation. On day 10 after starting the SFEB, any one of valproic acid (VPA) (manufactured by Sigma-Aldrich), zonisamide (ZNS) sodium salt (manufactured by Sumitomo Dainippon Pharma Co., Ltd.), 17β estradiol (E2) (manufactured by Sigma-Aldrich), a glial cell line derived neurotrophic factor (GDNF) (manufactured by R & D Systems) and PBS(-) was added to the medium for 4 days. Each of VPA, ZNS and E2 was used at three different concentrations. Specifically, the concentration of VPA was 0.01 mM, 0.1 mM or 1 mM, the concentration of ZNS was 1 μM, 10 μM or 100 μM, and the concentration of E2 was 1 nM, 10 nM or 100 nM. GDNF was added at a concentration of […] to be used as a positive control. […]"}, "[3]": {"tested_on": "grafts derived from mouse iPS cells", "experiment": "Transplantation experiment of mouse iPS cell-derived dopamine neural progenitor cells into striatum of SD rats (immunohistochemistry of grafts)", "format": "in vivo", "conditions": "four weeks after transplantation", "procedure": "Ten-week-old Sprague-Dawley rats (SD rats, available from Shimizu Laboratory Supplies Co., Ltd.) were handled in accordance with the Guidelines for Animal Experiments of Kyoto University. Each SD rat was anesthetized, and donor cells were transplanted by stereotaxic injection into striatums on both sides. Two cell aggregates (containing 3.1×10^5 cells on average) obtained on day 9 after starting the SFEB were collected in 1 μl of PBS(-) so as to be used as the donor cells for the transplantation in each tract. To the PBS(-), Y-27632 was added at a final concentration of […]. Thereafter, intraperitoneal injection of VPA (150 mg/kg/day), ZNS sodium salt (30 mg/kg/day), E2 (80 μM/kg/day) or a saline was conducted from two days before transplanting the donor cells until a day of necropsy. For immunosuppression, cyclosporin A (CsA, manufactured by Wako Pure Chemical Industries, Ltd.) was administered to all the SD rats at a daily dose of 10 mg/kg. Four weeks after the transplantation of the donor cells, the brains of the SD rats were washed and fixed by intracardially perfusing 4% paraformaldehyde under deep anesthesia. On the day of necropsy, a blood sample was collected from each SD rat one hour after the final injection of the test compound or CsA. Such a sample was sent to SRL, Inc. (Tokyo, Japan) where the blood concentration of the administered drug (test compound) was measured.\nIn an in vitro experiment, a cell aggregate treated with any of the above-described test compounds on day 14 after starting the SFEB was fixed with 4% paraformaldehyde. Thereafter, the fixed cell aggregate was frozen and sliced into thin sections each having a thickness of 10 μM by using a microtome for immunocytochemistry. On the other hand, in an in vivo experiment (transplantation experiment), the brain of a SD rat or a SCID rat was taken out after the transplantation experiment to be fixed again with 4% paraformaldehyde for 2 days. Thereafter, the fixed brain of the SD rat or SCID rat was cryopreserved in 30% sucrose for 3 days, frozen, and sliced into thin sections each having a thickness of 40 μM for immunohistochemistry. The frozen sections of the sphere (spherical cell mass) and the brain were subjected to a permeabilization and blocking treatment in PBS(-) for 1 hour at room temperature to be used as samples. The PBS(-) contained 0.3% Triton-X and 2% donkey serum. Thereafter, each of the sections was incubated overnight together with a primary antibody at 4° C. Primary antibodies used in this example are a rabbit anti-tyrosine hydroxylase antibody (dilution rate of 1:400, TH; manufactured by Millipore), a mouse anti-TH antibody (dilution rate of 1:200, manufactured by Millipore), a sheep anti-TH antibody (dilution rate of 1:400, manufactured by Millipore), a mouse anti-Tubβ3 antibody (dilution rate of 1:1000, Tuj1; manufactured by Covance Inc.), a rat anti-NURR1 antibody (dilution rate of 1:1000, KAN Research Institute, Inc., Kobe, Japan), a rabbit anti-Ki67 antibody (dilution rate of 1:1000, manufactured by Novocastra: NCL-Ki67p), a rabbit anti-caspase 3 antibody (dilution rate of 1:500, manufactured by Santa Cruz Biotechnology, Inc.), a rat anti-M2M6 antibody (dilution rate of 1:50, manufactured by Developmental Study Hybridoma Bank), a mouse anti-Nestin antibody (dilution rate of 1:50; manufactured by Millipore), a rabbit anti-Pitx3 antibody (dilution rate of 1:500; manufactured by Chemicon International Inc.), a goat […] antibody (dilution rate of 1:500, Foxa2; manufactured by Santa Cruz Biotechnology, Inc.), a mouse anti-human Nuclei antibody (dilution rate of 1:1000; manufactured by Millipore), and a mouse anti-NeuN antibody (dilution rate of 1:500, manufactured by Chemicon International Inc.). After washing with PBS (0.05% Tween-20) three times, the resultant sample was incubated with an Alexa Fluor-conjugated secondary antibody for 1 hour at room temperature. […]"}, "[4]": {"tested_on": "grafts derived from human iPS cells", "experiment": "Transplantation experiment of human iPS cell-derived dopamine neural progenitor cells into striatum of SCID rats (immunohistochemistry of grafts)", "format": "in vivo", "conditions": "ZNS at a high dose i.p., four weeks after transplantation", "procedure": "Twelve-week-old SCID rats (produced by Institute of Laboratory Animals, Graduate School of Medicine, Kyoto University) were handled in accordance with the Guidelines for Animal Experiments of Kyoto University. The SCID rats were anesthetized, and donor cells were transplanted by stereotaxic injection into striatums on both sides. Dopamine neural progenitor cells (2.7×10^5 cells on average) prepared from 1039A1 cell, that is, a human iPS cell line, were collected in 2 μl of PBS(-) so as to be used as the donor cells for the transplantation in each tract. To the PBS(-), […] was added at a final concentration of 30 μM. Thereafter, intraperitoneal injection of VPA (150 mg/kg/day or 600 mg/kg/day, which are sometimes designated respectively as a high dose and a low dose), ZNS sodium salt (30 mg/kg/day or 60 mg/kg/day, which are sometimes designated respectively as a high dose and a low dose), or a saline was conducted from two days before transplanting the donor cells until a day of necropsy. Four weeks after the transplantation of the donor cells, the brains of the SCID rats were washed and fixed by intracardially perfusing 4% paraformaldehyde under deep anesthesia. On the day of necropsy, a blood sample was collected from each SCID rat one hour after the final injection of the test compound, and the blood concentration of the drug (test compound) was measured.\nIn an in vitro experiment, a cell aggregate treated with any of the above-described test compounds on day 14 after starting the SFEB was fixed with 4% paraformaldehyde. Thereafter, the fixed cell aggregate was frozen and sliced into thin sections each having a thickness of 10 μM by using a microtome for immunocytochemistry. On the other hand, in an in vivo experiment (transplantation experiment), the brain of a SD rat or a SCID rat was taken out after the transplantation experiment to be fixed again with 4% paraformaldehyde for 2 days. […]"}, "[5]": {"conditions": "ddA or ICI singly added to cells, vs control"}}, "data": [{"smiles": "C[C@]12CC[C@@H]3c4ccc(O)cc4CC[C@H]3[C@@H]1CC[C@@H]2O", "note": "[E2, 17β estradiol]", "values": [{"measurement": "ratio of TH+ cells", "setting": "[1]; E2 10 nM, day 10 to 14, control 5.2±1.1%", "value": "12.2±2.3", "unit": "%"}, {"measurement": "ratio of dopaminergic neurons undergoing apoptosis (TH+ neurons expressing caspase 3)", "setting": "[2]", "value": "low"}]}, {"smiles": "NS(=O)(=O)Cc1noc2ccccc12", "note": "[ZNS, 1,2-benzisoxazole-3-methanesulfonamide]", "values": [{"measurement": "ratio of the differentiation of the transplanted NPC into neurons (NeuN+)", "setting": "[3]; ZNS sodium salt 30 mg/kg/day i.p., vs control", "value": "almost equivalent to that of a control"}, {"measurement": "ratio of TH+ cells that were FOXA2+", "setting": "[3]; VPA 150 mg/kg/day or ZNS 30 mg/kg/day i.p., control 24.7±9.3%", "value": "80.4±21.1", "unit": "%"}, {"measurement": "number of midbrain dopaminergic neurons (TH+ FOXA2+) in a graft", "setting": "[3]; VPA 150 mg/kg/day or ZNS 30 mg/kg/day i.p., control 97±76 cells", "value": "835±540", "unit": "cells"}, {"measurement": "ratio of TH+ cells that were FOXA2+", "setting": "[4]; control 76.3±9.7%", "value": "91.8±6.2", "unit": "%"}, {"measurement": "number of midbrain dopaminergic neurons (TH+ FOXA2+) in a graft", "setting": "[4]; control 2297±1116 cells", "value": "5889±1821", "unit": "cells"}, {"measurement": "number of TH+ cells in a graft", "setting": "[4]; control 3026±1349 cells", "value": "6480±2145", "unit": "cells"}]}, {"smiles": "C[C@]12CC[C@@H]3c4ccc(O)cc4C[C@@H](CCCCCCCCC[S+]([O-])CCCC(F)(F)C(F)(F)F)[C@H]3[C@@H]1CC[C@@H]2O", "note": "(stereo partly drawn) [ICI, ICI182780]", "values": [{"measurement": "ratios of increase in the TH+ cells", "setting": "[1]; 2 μM ICI added to 10 nM E2", "value": "remarkably reduced"}, {"measurement": "ratio of TH+ cells", "setting": "[1]; [5]", "value": "not changed as compared with that of the control"}]}, {"smiles": "C[C@H]1O[C@@H](n2cnc3c(N)ncnc32)C[C@@H]1O", "note": "[ddA, 2,5-dideoxyadenosine]", "values": [{"measurement": "ratios of increase in the TH+ cells", "setting": "[1]; 100 μM ddA added to 0.1 mM VPA", "value": "remarkably reduced"}, {"measurement": "ratio of TH+ cells", "setting": "[1]; [5]", "value": "not changed as compared with that of the control"}]}]}
